Data from the supplement of paper PMC10307832.

Assays:
Assay in all cases: relative viability (nuclei count vs DMSO), 5 days (fraction); higher = more cells survive
[1] = compound: CN1CCN(c2ccc3nc(-c4c(N)c5c(F)cccc5[nH]c4=O)[nH]c3c2)CC1 [Dovitinib] + O=C(CCCCCCC(=O)Nc1ccccc1)NO [Vorinostat] (partner 1 µM)
How it was run: (§1)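 Medians of duplicate plates are given as relative viability. That measure is the nuclei count in treated wells divided by the count in vehicle wells. Counts were taken on 4× images of lung cancer cell lines in 1536-well plates, 5 days after pin-tool dosing the day after seeding with one drug alone or a fixed anchor-drug dose plus five library-drug doses (not always all listed) in √10 steps.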

[2] = compound: CN1CCN(c2ccc3nc(-c4c(N)c5c(F)cccc5[nH]c4=O)[nH]c3c2)CC1 [Dovitinib] + CS(=O)(=O)N1CCN(Cc2cc3nc(-c4cccc5[nH]ncc45)nc(N4CCOCC4)c3s2)CC1 [Pictilisib] (partner 1 µM)
How it was run: as §1

[3] = compound: CN1CCN(c2ccc3nc(-c4c(N)c5c(F)cccc5[nH]c4=O)[nH]c3c2)CC1 [Dovitinib] + C[C@@H](Oc1cc(-c2cnn(C3CCNCC3)c2)cnc1N)c1c(Cl)ccc(F)c1Cl [Crizotinib] (partner 1 µM)
How it was run: as §1

[4] = compound: CN1CCN(c2ccc3nc(-c4c(N)c5c(F)cccc5[nH]c4=O)[nH]c3c2)CC1 [Dovitinib] + Cc1nc(Nc2ncc(C(=O)Nc3c(C)cccc3Cl)s2)cc(N2CCN(CCO)CC2)n1 [Dasatinib] (partner 0.075 µM)
How it was run: as §1

Cell Line	relative viability ([1]; first compound 0.02 µM)	relative viability ([1]; first compound 0.06325 µM)	relative viability ([1]; first compound 0.2 µM)	relative viability ([1]; first compound 0.6325 µM)	relative viability ([1]; first compound 2 µM)	relative viability ([2]; first compound 0.02 µM)	relative viability ([2]; first compound 0.06325 µM)	relative viability ([2]; first compound 0.6325 µM)	relative viability ([2]; first compound 2 µM)	relative viability ([3]; first compound 0.02 µM)	relative viability ([3]; first compound 0.06325 µM)	relative viability ([3]; first compound 0.6325 µM)	relative viability ([3]; first compound 2 µM)	relative viability ([4]; first compound 0.02 µM)	relative viability ([4]; first compound 0.06325 µM)	relative viability ([4]; first compound 0.2 µM)	relative viability ([4]; first compound 0.6325 µM)	relative viability ([4]; first compound 2 µM)	relative viability ([2]; first compound 0.2 µM)	relative viability ([3]; first compound 0.2 µM)
201T	0.862	0.957	0.908	0.947	0.949	0.725	0.692	0.702	0.658	1.03	0.935	0.992	1.01	0.571	0.565	0.581	0.566	0.538		
A549						0.412	0.474	0.488	0.463	0.702	0.763	0.694	0.733						0.541	0.741
A-427	0.83	0.845	0.895	0.941	0.991	0.724	0.625	0.585	0.774	0.854	0.812	0.708	0.819	0.624	0.654	0.673	0.634	0.698	0.573	0.85
ABC-1	1.14	1.12	1.07	1.18	1.18	0.697	0.664	0.872	0.78	1.54	1.19	1.2	1.08	0.479	0.55	0.474	0.618	0.61	0.826	1.22
BEN	0.551	0.542	0.578	0.598	0.57	0.565	0.548	0.661	0.493	0.864	0.903	0.827	0.887	0.32	0.272	0.321	0.326	0.307	0.553	0.912
CAL-12T	0.754	0.73	0.926	0.829	0.764	0.664	0.3	0.528	0.722	0.532	0.628	0.635	0.661	0.43	0.486	0.465	0.49	0.457	0.295	0.654
COR-L23	0.431	0.505	0.551	0.379	0.462	0.733	0.75	0.838	0.904	0.655	0.526	0.55	0.756	0.482	0.565	0.512	0.534	0.567	0.813	0.638
COR-L 105	0.867	0.801	0.833	0.69	0.794	0.362	0.356	0.439	0.529	0.706	0.832	0.701	0.69	0.34	0.34	0.332	0.439	0.393	0.365	0.774
Calu-6						0.931	0.885	0.893	1	0.674	0.827	0.847	0.779						0.913	0.665
ChaGo-K-1	0.739	0.814	0.758	0.766	0.706	0.653	0.654	0.883	0.972	1.03	1.08	1.11	1.15	0.632	0.559	0.603	0.595	0.526	0.829	1.09
EKVX	0.799	0.776	0.836	0.75	0.739	0.451	0.366	0.506	0.463	0.937	0.975	0.988	0.906	0.517	0.662	0.588	0.61	0.611	0.462	1.08
EMC-BAC-2	0.512	0.449	0.422	0.522	0.517	0.515	0.516	0.512	0.56	0.702	0.699	0.62	0.776	0.362	0.284	0.341	0.299	0.202	0.497	0.749
EPLC-272H	0.564	0.522	0.434	0.402	0.367	0.35	0.277	0.383	0.353	0.799	0.994	1.09	0.972	0.351	0.346	0.36	0.37	0.31	0.311	0.981
H3255	0.684	0.886	0.862	0.778	0.711	0.539	0.514	0.516	0.514	0.898	0.903	0.929	0.871	0.405	0.374	0.424	0.445	0.369	0.498	0.854
HARA	0.553	0.542	0.645	0.676	0.569	0.372	0.259	0.398	0.417	1.07	1.08	1.1	1.07	0.319	0.152	0.275	0.226	0.291	0.367	0.985
HCC-15	0.931	0.873	0.815	0.837	0.85	0.827	0.742	0.82	0.722	0.756	0.841	0.79	0.812	0.673	0.548	0.664	0.59	0.561	0.767	0.719
HCC-44	1.08	1.1	1.08	1.09	1.08	0.516	0.594	0.62	0.591	0.668	0.793	0.745	0.777						0.642	0.76
HCC-78	0.413	0.415	0.39	0.533	0.431	0.206		0.272	0.213	0.334		0.347	0.363	0.426	0.328	0.392	0.453	0.357	0.24	0.356
